# Assay results taken from patent US7999011B2, “Method for cardioprotection and neuroprotection by intravenous administration of halogenated volatile anesthetics” (Baxter International Inc., priority 2002, dated 2011).
# What was measured:
# [1] = Warming of emulsion at 37° C. for 2 h before infusion; assay type: physicochemical; conditions: syringe and extension tubing
# Description: The experimental design for the experiments is illustrated in FIG. 1. Rabbits were randomly assigned to one of six experimental groups: a control group (0.9% saline infusion), a vehicle group (drug lipid vehicle), or one of four anesthetic groups (emulsified desflurane, isoflurane, enflurane, or sevoflurane). The vials of anesthetics were stored at 4° C. as prepared in Example 1. After opening, the vial was left in a water bath at 37° C. for 2 h. Anesthetics were directly poured into the syringe without using negative pressure suction.
# All anesthetics were used under equivalent experimental conditions, as indicated previously (i.e., warmed for two hours at body temperature before infusion).
# Despite efforts to remove the bubbles, it was impossible to eliminate all bubbles, and some were likely infused during the infusion period. Desflurane results should therefore be interpreted with the constraints of this experimental limitation.
# [2] = Systemic hemodynamics during infarct experiment; assay type: in vivo, rabbit
# Description: (§1) Male New Zealand white rabbits weighing between 2.5 and 3.0 kg were anesthetized with intravenous sodium pentobarbital (30 mg/kg). Additional doses of pentobarbital were titrated as required to assure that pedal and palpebral reflexes were absent throughout the experiment. A tracheotomy was performed through a ventral midline incision, and the trachea was cannulated. The rabbits were ventilated with positive pressure using an air-oxygen mixture (FiO2=0.33). […] Body temperature was maintained with a heating blanket. Heparin-filled catheters were inserted into the right carotid artery and the left jugular vein for measurement of arterial blood pressure and fluid or drug administration, respectively. Maintenance fluids consisted of 0.9% saline (15 ml/kg/h) that were continued for the duration of the experiment.
# A left thoracotomy was performed at the fourth intercostal space, and the heart was suspended in a pericardial cradle. A prominent branch of the left anterior descending coronary artery (LAD) was selected, and a silk ligature was placed around this artery approximately halfway between the base and apex for the production of coronary artery occlusion and reperfusion in myocardial infarct size experiments. Each rabbit was anticoagulated with 500 U of heparin immediately before LAD occlusion. Coronary artery occlusion was verified by the presence of epicardial cyanosis and regional dyskinesia in the ischemic zone, and reperfusion was confirmed by observing an epicardial hyperemic response. Hemodynamics were continuously recorded on a polygraph throughout experimentation. After the surgical preparation, 30 min of stabilization were allowed.
# (§2) Baseline measurements of systemic hemodynamics, arterial blood gas tensions, and blood concentrations of anesthetic agent were performed 30 min after instrumentation was completed. Rabbits received 0.9% saline, drug lipid vehicle (10 ml/h), or intravenous volatile anesthetic (10 ml/h) for 30 min. Infusions were discontinued 30 min prior to coronary occlusion (memory period). Blood concentrations of anesthetic agents were performed at baseline, at the end of anesthetic infusion, and at the end of the memory period just before coronary occlusion). HVA concentrations in blood were determined by gas chromatographic (GC) analysis. All rabbits underwent a 30 min LAD occlusion followed by 3 h reperfusion.
# (§3) Statistical analysis of data within and between groups was performed with analysis of variance (ANOVA) for repeated measures followed by Student-Newman-Keuls test. Changes between groups were considered statistically significant when the p value was less than 0.05. All data are expressed as mean±SEM.
# [3] = Arterial blood gas analysis; assay type: in vivo, rabbit; conditions: for pH: arterial blood
# Description: as §1, §2, §3
# [4] = Literature MAC values in rabbits and 1 MAC-equivalent blood concentration; assay type: in vivo; conditions: 37° C., rabbit; x=λn
# Description: “Minimum alveolar concentration (MAC)”, as is known in the art, is the alveolar concentration of an anesthetic, administered by inhalation at a pressure of 1 atmosphere, that prevents movement in 50% of patients in response to a painful stimuli. The MAC is age-dependent; it may be affected by a patient's medical condition; and it may also be affected by other pharmaceutical agents that are administered to the patient. In the context of intravenous administration of HVAs, the term “MAC” or “MAC-equivalent” is intended to mean an intravenous dose which produces the same blood plasma concentration of an anesthetic agent as that attained by inhalational administration of a gaseous concentration of anesthetic which prevents such movement in 50% of patients.
# Blood concentrations as measured by GC were converted to their MAC-equivalent values by calculations described below. Initially “n”, or the number of moles of HVA in 1 L of alveolar gas during exposure to 1.0 MAC of the HVA was calculated.
# The number of moles of the HVA in 1 L at 37° C. at 1 MAC in rabbits was then used to determine the concentration of the HVA present in blood by using known blood/gas partition values (also known as λ). […] The value for “x” (or the equivalent blood concentration of the HVA at 1 MAC at 37° C. in rabbit) is then determined by the equation: x=λn
# [5] = i.v. emulsion 10 ml/h for 30 min, Baseline
compound,measurement,setting,value
"FC(F)OC(F)C(F)(F)F (stereo not shown) [DES, desflurane]",behaviour of emulsion on warming to body temperature,[1],bubbles accumulated in the syringe and extension tubing
same,MAP,[2]; Baseline,71 ± 8 mmHg
same,HR,[2]; Infusion,253 ± 9 bpm
same,MAP,[2]; Infusion,67 ± 9 mmHg
same,RPP,[2]; Infusion,20.4 ± 2.8 bpm × mmHg × 10^3
same,HR,[2]; Ischemia 30 min,228 ± 7 bpm
same,MAP,[2]; Ischemia 30 min,53 ± 8 mmHg
same,RPP,[2]; Ischemia 30 min,14.5 ± 2 bpm × mmHg × 10^3
same,HR,[2]; Memory,231 ± 9 bpm
same,MAP,[2]; Memory,58 ± 10 mmHg
same,RPP,[2]; Memory,16.3 ± 3 bpm × mmHg × 10^3
same,MAP,"[2]; Memory, listed as desflurane",decrease in mean arterial pressure
same,HR,[2]; Reperfusion 1 h,201 ± 14 bpm
same,MAP,[2]; Reperfusion 1 h,54 ± 7 mmHg
same,RPP,[2]; Reperfusion 1 h,12.4 ± 0.4 bpm × mmHg × 10^3
same,RPP,"[2]; Reperfusion 1 h, listed as desflurane",decreased
same,HR,[2]; Reperfusion 2 h,216 ± 6 bpm
same,MAP,[2]; Reperfusion 2 h,58 ± 8 mmHg
same,RPP,[2]; Reperfusion 2 h,15 ± 2.1 bpm × mmHg × 10^3
same,HR,[2]; Reperfusion 3 h,219 ± 7 bpm
same,MAP,[2]; Reperfusion 3 h,54 ± 5 mmHg
same,RPP,[2]; Reperfusion 3 h,14.2 ± 1.4 bpm × mmHg × 10^3
same,HR,[2]; [5],261 ± 11 bpm
same,PaCO2,[3]; Baseline,29 ± 2 mmHg
same,PaO2,[3]; Baseline,158 ± 23 mmHg
same,PaCO2,[3]; Infusion,32 ± 3 mmHg
same,PaO2,[3]; Infusion,157 ± 17 mmHg
same,PaCO2,[3]; Ischemia 30 min,31 ± 3 mmHg
same,PaO2,[3]; Ischemia 30 min,136 ± 24 mmHg
same,PaCO2,[3]; Memory,34 ± 3 mmHg
same,PaO2,[3]; Memory,143 ± 17 mmHg
same,PaCO2,[3]; Reperfusion 1 h,30 ± 4 mmHg
same,PaO2,[3]; Reperfusion 1 h,141 ± 19 mmHg
same,PaCO2,[3]; Reperfusion 2 h,26 ± 3 mmHg
same,PaO2,[3]; Reperfusion 2 h,155 ± 18 mmHg
same,PaCO2,[3]; Reperfusion 3 h,30 ± 1 mmHg
same,PaO2,[3]; Reperfusion 3 h,165 ± 12 mmHg
same,pH,[3]; Baseline,7.45 ± 0.02
same,pH,[3]; Infusion,7.40 ± 0.02
same,pH,[3]; Ischemia 30 min,7.34 ± 0.01
same,pH,[3]; Memory,7.36 ± 0.02
same,pH,[3]; Reperfusion 1 h,7.37 ± 0.02
same,pH,[3]; Reperfusion 2 h,7.40 ± 0.01
same,pH,[3]; Reperfusion 3 h,7.41 ± 0.01
same,"1 MAC-Equivalent Blood Concentration at 1 MAC (""x"")",[4],1.38 mM
"FC(F)OC(F)(F)C(F)Cl (stereo not shown) [ENF, enflurane]",MAP,[2]; Baseline,78 ± 4 mmHg
same,RPP,[2]; Baseline,22 ± 1.9 bpm × mmHg × 10^3
same,HR,[2]; Infusion,240 ± 11 bpm
same,MAP,[2]; Infusion,68 ± 3 mmHg
same,RPP,[2]; Infusion,18.9 ± 1.5 bpm × mmHg × 10^3
same,HR,[2]; Ischemia 30 min,213 ± 9 bpm
same,MAP,[2]; Ischemia 30 min,59 ± 6 mmHg
same,RPP,[2]; Ischemia 30 min,14.5 ± 1.7 bpm × mmHg × 10^3
same,HR,[2]; Memory,231 ± 11 bpm
same,MAP,[2]; Memory,70 ± 3 mmHg
same,RPP,[2]; Memory,18.9 ± 1.4 bpm × mmHg × 10^3
same,HR,[2]; Reperfusion 1 h,216 ± 7 bpm
same,MAP,[2]; Reperfusion 1 h,65 ± 6 mmHg
same,RPP,[2]; Reperfusion 1 h,15.8 ± 1.5 bpm × mmHg × 10^3
same,HR,[2]; Reperfusion 2 h,214 ± 10 bpm
same,MAP,[2]; Reperfusion 2 h,68 ± 7 mmHg
same,RPP,[2]; Reperfusion 2 h,16.5 ± 1.6 bpm × mmHg × 10^3
same,HR,[2]; Reperfusion 3 h,210 ± 7 bpm
same,MAP,[2]; Reperfusion 3 h,75 ± 5 mmHg
same,RPP,[2]; Reperfusion 3 h,17.6 ± 1.3 bpm × mmHg × 10^3
same,HR,[2]; [5],248 ± 10 bpm
same,PaCO2,[3]; Baseline,28 ± 2 mmHg
same,PaO2,[3]; Baseline,151 ± 16 mmHg
same,PaCO2,[3]; Infusion,31 ± 2 mmHg
same,PaO2,[3]; Infusion,130 ± 14 mmHg
same,PaCO2,[3]; Ischemia 30 min,32 ± 2 mmHg
same,PaO2,[3]; Ischemia 30 min,157 ± 22 mmHg
same,PaCO2,[3]; Memory,30 ± 2 mmHg
same,PaO2,[3]; Memory,149 ± 16 mmHg
same,PaCO2,[3]; Reperfusion 1 h,28 ± 2 mmHg
same,PaO2,[3]; Reperfusion 1 h,143 ± 11 mmHg
same,PaCO2,[3]; Reperfusion 2 h,27 ± 2 mmHg
same,PaO2,[3]; Reperfusion 2 h,135 ± 10 mmHg
same,PaCO2,[3]; Reperfusion 3 h,32 ± 3 mmHg
same,PaO2,[3]; Reperfusion 3 h,131 ± 12 mmHg
same,pH,[3]; Baseline,7.47 ± 0.02
same,pH,[3]; Infusion,7.41 ± 0.02
same,pH,[3]; Ischemia 30 min,7.37 ± 0.02
same,pH,[3]; Memory,7.40 ± 0.02
same,pH,[3]; Reperfusion 1 h,7.38 ± 0.02
same,pH,[3]; Reperfusion 2 h,7.40 ± 0.03
same,pH,[3]; Reperfusion 3 h,7.42 ± 0.02
same,"1 MAC-Equivalent Blood Concentration at 1 MAC (""x"")",[4],1.995 mM
